Consider two compounds from US20140031217A1, “HERBICIDAL COMPOSITIONS COMPRISING 4-AMINO-3-CHLORO-5-FLUORO-6-(4-CHLORO-2-FLUORO-3-METHOXYPHENYL)PYRIDINE-2-CARBOXYLIC ACID OR A DERIVATIVE THEREOF AND AUXIN TRANSPORT INHIBITORS” (DOW AGROSCIENCES LLC, priority 2012, published 2014).

One assay relates to LEFCH. The assay is described as follows: In-water applied (paddy) greenhouse weed control, LEFCH. The class given is in vivo, Leptochloa chinensis (L.) Nees. The conditions noted are these: 20 DAA. How it is done: Weed seeds or nutlets of the desired test plant species were planted in puddled soil (mud) prepared by mixing a shredded, non-sterilized mineral soil (50.5 percent silt, 25.5 percent clay, and 24 percent sand, with a pH of about 7.6 and an organic matter content of about 2.9 percent) and water at a 1:1 volumetric ratio. The prepared mud was dispensed in 365 mL aliquots into 16-ounce (oz.) non-perforated plastic pots with a surface area of 86.59 square centimeters (cm^2) leaving a headspace of 3 centimeters (cm) in each pot. Mud was allowed to dry overnight prior to planting or transplanting. Rice seeds were planted in Sun Gro MetroMix® 306 planting mixture, which typically has a pH of 6.0 to 6.8 and an organic matter content of about 30 percent, in plastic plug trays. Seedlings at the second or third leaf stage of growth were transplanted into 840 mL of mud contained in 32-oz. non-perforated plastic pots with a surface area of 86.59 cm^2 4 days prior to herbicide application. The paddy was created by filling the headspace of the pots with 2.5 to 3 cm of water. When required to ensure good germination and healthy plants, a fungicide treatment and/or other chemical or physical treatment was applied. The plants were grown for 4-22 days in a greenhouse with an approximate 14 h photoperiod which was maintained at about 29′C during the day and 26° C. during the night. Nutrients were added as Osmocote® (19:6:12, N:P:K+minor nutrients) at 2 g per 16-oz. pot and 4 g per 960-mL 32-oz. pot. Water was added on a regular basis to maintain the paddy flood, and supplemental lighting was provided with overhead metal halide 1000-Watt lamps as necessary. The plants were employed for testing when they reached the second or third true leaf stage.
Treatments consisted of the acid or esters of 4-amino-3-chloro-5-fluoro-6-(4-chloro-2-fluoro-3-methoxy-phenyl)pyridine-2-carboxylic acid (compound A) each formulated as an SC and various herbicidal components alone and in combination. Forms of compound A were applied on an acid equivalent basis.
Other herbicidal components were applied on an active ingredient basis and included auxin transport inhibiting (ATI) herbicides chlorflurenol-methyl (technical material), chlorflurenol (technical material), diflufenzopyr (technical material), dilfufenzopyr sodium (technical material), flurenol-methyl (technical material,) and naptalam (technical material).
Treatment requirements for each compound or herbicidal component were calculated based upon the rates being tested, the concentration of active ingredient or acid equivalent in the formulation, an application volume of 2 mL per component per pot, and an application area of 86.59 cm^2 per pot.
For formulated compounds, a measured amount was placed in an individual 100 or 200 mL glass vial and was dissolved in a volume of 1.25% (v/v) Agri-Dex® crop oil concentrate to obtain application solutions.
For technical grade compounds, a weighed amount was placed in an individual 100 to 200 mL glass vial and was dissolved in a volume of acetone to obtain concentrated stock solutions. […] The concentrated stock solutions obtained were diluted with an equivalent volume of an aqueous mixture containing 2.5% (v/v) crop oil concentrate so that the final application solutions contained 1.25% (v/v) crop oil concentrate.
Applications were made by injecting with a pipetter appropriate amounts of the application solutions, individually and sequentially, into the aqueous layer of the paddy. Control plants were treated in the same manner with the solvent blank. Applications were made so that all treated plant material received the same concentrations of acetone and crop oil concentrate.
The treated plants and control plants were placed in a greenhouse as described above and water was added as needed to maintain a paddy flood. […]

A further assay deals with CYPIR. Description: Postemergence foliar-applied greenhouse weed control, CYPIR. The class given is in vivo, Cyperus iria L. An excerpt: (§1) Seeds or nutlets of the desired test plant species were planted in a soil matrix prepared by mixing a loam or sandy loam soil (e.g., 28.6 percent silt, 18.8 percent clay, and 52.6 percent sand, with a pH of about 5.8 and an organic matter content of about 1.8 percent) and calcareous grit in an 80 to 20 ratio. The soil matrix was contained in plastic pots with a volume of 1 quart and a surface area of 83.6 square centimeters (cm^2). When required to ensure good germination and healthy plants, a fungicide treatment and/or other chemical or physical treatment was applied. The plants were grown for 8-22 days in a greenhouse with an approximate 14 h photoperiod which was maintained at about 29° C. during the day and 26° C. during the night. Nutrients (Peters Excel® 15-5-15 5-Ca 2-Mg and iron chelate) were applied in the irrigation solution as needed and water was added on a regular basis. Supplemental lighting was provided with overhead metal halide 1000-Watt lamps as necessary. The plants were employed for testing when they reached the first through fourth true leaf stage.
(§2) Treatments consisted of the acid or esters of 4-amino-3-chloro-5-fluoro-6-(4-chloro-2-fluoro-3-methoxy-phenyl) pyridine-2-carboxylic acid (Compound A), each formulated as an SC (suspension concentrate), and various herbicidal components alone and in combination. Forms of compound A were applied on an acid equivalent basis.
(§3) Other herbicidal components were applied on an active ingredient basis and included auxin transport inhibiting (ATI) herbicides chlorflurenol (technical material), chlorflurenol-methyl (technical material), diflufenzopyr (technical material), diflufenzopyr sodium (technical material), flurenol-methyl (technical material) and naptalam (technical material).
(§4) Treatment requirements were calculated based upon the rates being tested, the concentration of active ingredient or acid equivalent in the formulation, and a 12 mL application volume at a rate of 187 L/ha.
(§5) For treatments comprised of formulated and technical compounds, weighed amounts of the technical materials were placed individually in 25 mL glass vials and dissolved in a volume of 97:3 v/v acetone/DMSO to obtain 12× stock solutions, and measured amounts of the formulated compounds were placed individually in 25 mL glass vials and diluted in a volume of 1.5% (v/v) crop oil concentrate or water to obtain 12× stock solutions. […] Application solutions were prepared by adding an appropriate amount of each stock solution (e.g., 1 mL) and diluted to the appropriate final concentrations with the addition of an appropriate amount of an aqueous mixture of 1.5% (v/v) crop oil concentrate so that the final spray solutions contained 1.25% (v/v) crop oil concentrate. When required, additional water and/or 97:3 v/v acetone/DMSO was added to individual application solutions so that the final acetone and DMSO concentrations of the application solutions being compared were 8.1% and 0.25%, respectively.
(§6) All stock solutions and applications solutions were visually inspected for compound compatibility prior to application. Spray solutions were applied to the plant material with an overhead Mandel track sprayer equipped with an 8002E nozzle calibrated to deliver 187 L/ha over an application area of 0.503 m^2 at a spray height of 18 to 20 inches (46 to 50 cm) above average plant canopy height. Control plants were sprayed in the same manner with the solvent blank.
(§7) The treated plants and control plants were placed in a greenhouse as described above and watered by sub-irrigation to prevent wash-off of the test compounds. After approximately 3 weeks, the condition of the test plants as compared with that of the untreated plants was determined visually and scored on a scale of 0 to 100 percent where 0 corresponds to no injury or growth inhibition and 100 corresponds to complete kill. […]

Another assay deals with IPOHE. Description: Postemergence foliar-applied greenhouse weed control, IPOHE. The class given is in vivo, Ipomoea hederacea Jacq.
Description: as §1, §2, §3, §4, §5, §6, §7

Take `COc1c(Cl)ccc(-c2nc(C(=O)O)c(Cl)c(N)c2F)c1F` [Compound A Acid, 4-amino-3-chloro-6-(4-chloro-2-fluoro-3-methoxyphenyl)-5-fluoropyridine-2-carboxylic acid]: the “Visual Weed Control (%) Obs” value is 20% in the assay on LEFCH (8.75 gae/ha); 0% in the assay on LEFCH (17.5 gae/ha); 30% in the assay on LEFCH (35 gae/ha); 30% in the assay on CYPIR (20 DAA, 4.38 gae/ha); 20% in the assay with IPOHE (20 DAA, 4.38 gae/ha); 20% in the assay with IPOHE (20 DAA, 8.75 gae/ha). The “Visual Weed Control (%) Obs” value with IPOHE (20 DAA, 17.5 gae/ha) was determined as 50%.

On to `COc1c(Cl)ccc(-c2nc(C(=O)OCc3ccccc3)c(Cl)c(N)c2F)c1F` [Compound A Benzyl Ester], for which the “Visual Weed Control (%) Obs” value in the assay with LEFCH (4.38 gae/ha) stood at 0%; in the assay with LEFCH (8.75 gae/ha), 20%; in the assay with LEFCH (17.5 gae/ha), 30%; in the assay on CYPIR (20 DAA, 4.38 gae/ha), 70%; in the assay on CYPIR (22 DAA, 8 gae/ha), 30%; in the assay on IPOHE (20 DAA, 4.38 gae/ha), 10%. Besides, the “Visual Weed Control (%) Obs” value in the assay with IPOHE (20 DAA, 8.75 gae/ha) worked out at 15%; with IPOHE (21 DAA, 4.38 gae/ha), 10%; with IPOHE (21 DAA, 8.75 gae/ha) it was 10%; in the assay on IPOHE (21 DAA, 17.5 gae/ha) it was 25%; in the assay with IPOHE (22 DAA, 8 gae/ha), 0%; in the assay on IPOHE (22 DAA, 16 gae/ha), 25%. Besides, the “Visual Weed Control (%) Obs” value in the assay on IPOHE (22 DAA, 32 gae/ha) is given as 50%.
